Laboratory results from US8507674B2, “Quorum sensing inhibitor” (The University of Tokyo, priority 2007, dated 2013).

Key:
Burkholderia glumae [1] = assay: Test Example 3: number of microorganisms versus culturing time and concentration; type: cell-based; conditions: 80 μM or 100 μM, 20 to 40 hours culturing, FIG. 2
Experimental: Burkholderia glumae was inoculated into an LB culture medium, and cultured at 37° C. overnight. The thus-obtained culture solution was subjected to bacterial collection using a centrifuge, washed with an LB culture medium twice using a fresh LB culture medium each time. To the bacterial cell a fresh LB culture medium was added to prepare a culture suspension of about 3.0×10^5 cfu/mL. Thereafter, Compound (1) produced in Production Example 1 was added to the culture suspension in such a manner that its final concentration became a predetermined value (i.e., 0 μM, 80 μM, or 100 μM), followed by shake culturing for 40 hours. The number of microorganisms in the culture solution after a predetermined time (i.e., 20, 24, 28, 32, 36 and 40 hours) was obtained by the following procedure. Specifically, a portion of the culture solution was removed and diluted 1,000-fold, and then seeded to an LB culture medium agar plate. The number of colonies was counted to obtain the number of microorganisms.

Burkholderia glumae [2] = assay: Test Example 9: amount of toxoflavin produced in culture solution, with comparative compound; type: cell-based; conditions: 0, 20, 40, 60, 80 or 100 μM, shake culturing 20 hours, FIG. 6
Experimental: (§1) Burkholderia glumae was inoculated into an LB culture medium (produced by BD (Difco LB Broth: containing tryptone (10.0 g), yeast extract (5.0 g), and sodium chloride (10.0 g)), and cultured at 37° C. overnight. The thus-obtained culture solution was subjected to bacterial collection using a centrifuge, and washed with an LB culture medium twice using a fresh LB culture medium each time. To the bacterial cell a fresh LB culture medium was added, and then Compound (1) produced in Production Example 1 was added thereto in such a manner that its final concentration became a predetermined value (i.e., 0, 20, 40, 60, 80 or 100 μM), followed by shake culturing for 20 hours. The amount of toxoflavin produced by the bacterial cell in the culture solution was obtained by the following procedure.
Each culture solution was filtered by a 0.22-μm membrane filter, and 1 mL of the filtrate was isolated. One mL of chloroform was added to the filtrate, followed by extraction. The thus-obtained chloroform layer was concentrated under reduced pressure, and an 80% (V/V) an aqueous methanol solution was added to and dissolved in the residue. The absorbance (at 260 nm) of the solution was measured, and the toxin doses were calculated from the calibration curve, which was obtained using chemically synthesized standard toxin. […]

Burkholderia glumae [3] = assay: Test Example 5: onset of infection on rice, test liquid sprayed before infection; type: in vivo; conditions: for percentage of flower clusters with score 0: score 0 = less than 0.1% diseased; for percentage of flower clusters with score 0 / percentage of flower clusters with score 1 / percentage of flower clusters with score 2 / percentage of flower clusters with score 3 / percentage of flower clusters with score 4 / percentage of flower clusters with score 5: rice, 7 days; for percentage of flower clusters with score 1: score 1 = 0.1-20% diseased; for percentage of flower clusters with score 2: score 2 = 20-40% diseased; for percentage of flower clusters with score 3: score 3 = 40-60% diseased; for percentage of flower clusters with score 4: score 4 = 60-80% diseased; for percentage of flower clusters with score 5: score 5 = 80-100% diseased
Experimental: A dimethyl formamide solution (1,000 ppm) of Compound (1) was diluted with water to have a predetermined concentration (50, 100 or 200 μM) to prepare a test liquid. In a separate procedure, Burkholderia glumae were seeded to an LB culture medium and cultured overnight at 37° C., preparing a culture solution for infection.
Each test liquid (10 mL) was sprayed onto Korean rice (Milyang 23) raised in a hothouse until the flowering stage. The culture solution for infection was sprayed onto the rice one hour after the application of the test liquid. After cultivation for seven days, the onset of Burkholderia glumae infection on the rice was evaluated.
The evaluation was conducted by picking an ear from each plant, making a total of three ears. In each flower cluster (grain), the percentage of the portion that suffered from the onset of disease (i.e., the portion that turned brown) caused by the toxoflavin produced by Burkholderia glumae was visually observed and scored based on the scale shown below. The percentage of the total flower clusters was obtained and scored to indicate the onset of the disease.
The percentage that suffered from the onset of disease:
Not less than 0.1% and not greater than 20%: 1
Not less than 20% and not greater than 40%: 2
Not less than 40% and not greater than 60%: 3
Not less than 60% and not greater than 80%: 4
In this evaluation, three flower clusters (grains) having the same conditions were prepared, and reproducibility was confirmed by repeating the same evaluation three times. The same evaluation was also conducted as a comparative test except that water was used instead of the test liquid. Further, the same evaluation was conducted to serve as a blank except that water was used instead of both the test liquid and the culture solution for infection.

Burkholderia glumae [4] = assay: Test Example 4: amount of toxoflavin produced in culture solution; type: cell-based; conditions: 0, 20, 40, 60, 80 or 100 μM, shake culturing 20 hours, FIG. 3
Experimental: as §1, with “medium,” for “medium (produced by BD (Difco LB Broth: containing tryptone (10.0 g), yeast extract (5.0 g), and sodium chloride (10.0 g)),”
Each culture solution was filtered by 0.22-μm membrane filter, and 1 mL of the filtrate was isolated. One mL of chloroform was added to the filtrate, followed by extraction. The thus-obtained chloroform layer was concentrated under reduced pressure, and an 80% (V/V) an aqueous methanol solution was added to and dissolved in the residue. The absorbance (at 260 nm) of the solution was measured, and the toxin doses were calculated from the calibration curve, which was obtained using a chemically synthesized standard toxin.

[5] = 50 μM sprayed 1 h before infection
[6] = 100 μM sprayed 1 h before infection
[7] = 200 μM sprayed 1 h before infection

CCCc1cc(=O)n2cccc(O)c2n1 [Compound (1), 2-n-propyl-9-hydroxy-4H-pyrid[1,2-a]pyrimidin-4-one]
control effect against Burkholderia glumae (number of microorganisms) (Burkholderia glumae [1]): excellent control effect
toxin doses produced by bacteria (toxoflavin) (Burkholderia glumae [2]): remarkably decreased
percentage of flower clusters with score 0 (Burkholderia glumae [3]; [5]): 68%
percentage of flower clusters with score 0 (Burkholderia glumae [3]; [6]): 80%
percentage of flower clusters with score 0 (Burkholderia glumae [3]; [7]): 82%
percentage of flower clusters with score 1 (Burkholderia glumae [3]; [5]): 7%
percentage of flower clusters with score 1 (Burkholderia glumae [3]; [6]): 6%
percentage of flower clusters with score 1 (Burkholderia glumae [3]; [7]): 6%
percentage of flower clusters with score 2 (Burkholderia glumae [3]; [5]): 6%
percentage of flower clusters with score 2 (Burkholderia glumae [3]; [6]): 4%
percentage of flower clusters with score 2 (Burkholderia glumae [3]; [7]): 6%
percentage of flower clusters with score 3 (Burkholderia glumae [3]; [5]): 7%
percentage of flower clusters with score 3 (Burkholderia glumae [3]; [6]): 3%
percentage of flower clusters with score 3 (Burkholderia glumae [3]; [7]): 2%
percentage of flower clusters with score 4 (Burkholderia glumae [3]; [5]): 6%
percentage of flower clusters with score 4 (Burkholderia glumae [3]; [6]): 3%
percentage of flower clusters with score 4 (Burkholderia glumae [3]; [7]): 2%
percentage of flower clusters with score 5 (Burkholderia glumae [3]; [5]): 6%
percentage of flower clusters with score 5 (Burkholderia glumae [3]; [6]): 4%
percentage of flower clusters with score 5 (Burkholderia glumae [3]; [7]): 2%
onset of Burkholderia glumae on rice (Burkholderia glumae [3]; test liquid 50, 100 or 200 μM sprayed before the culture solution for infection): prevented
toxin doses produced by bacteria (toxoflavin) (Burkholderia glumae [4]): remarkably decreased
